Like-named read-outs stand apart in the source and are kept apart here.
Key:
Assay type in all cases: cell-based, human
pERK, NCI-H358 cells = assay: Phospho-ERK inhibition, AlphaLISA p-ERK 1/2, NCI-H358; details: Table D-2; for IC50: NCI-H358 (KRAS-G12C); for pERK value in parentheses, % inhibition (Ymin): NCI-H358, lowest point of IC50 curve
Description: (§1) All cancer cell lines (A375, A101D, A2058, RKO, HT29 SK-MEL 30, IPC298, HepG2, HCT-116, Lovo, SW620, SW480, NCI-H358, NCI-H2122, Calu-6, NCIH2087, NCIH1755, NCIH1666 and Mewo) were obtained from ATCC and cultured in RPM1-1640 medium (Gibco) supplemented with 5% heat inactivated fetal bovine serum (FBS, Wisent) at 37° C. under 5% CO2. Cells were maintained in T175 flasks (Greiner). They were passaged by removing the culture medium, washing once in 10 mL of room temperature Phosphate Buffered Saline (PBS; Wisent) and incubating at 37° C. with 2 mL of 0.05% Trypsin (Thermo-Fisher). Trypsin was then inactivated by adding complete growth medium and the cells were then replated in a T175 culture dish at the appropriate dilution. All cell lines were routinely tested for mycoplasma contamination. Tissue type and mutational status of each cell line can be found in Table B.
(§2) (c) Measurement of Phospho-ERK Inhibition in Cultivated Human Cancer Cell Lines by the AlphaLISA® SureFire® Ultra™ p-ERK 1/2 (Thr2O2/Tyr204)
(§3) AlphaLISA® SureFire® Ultra™ p-ERK 1/2 (Thr202/Tyr204) analysis was conducted on cells plated in 100 μL of complete RPMI-1640 growth medium in 96-well flat-bottomed transparent dishes (Costar) at a density indicated in Table C. Cells were maintained overnight at 37° C. under 5% CO2 before treatment with compounds' dilution series for one hour. The cell density in cells/cm^2 corresponds to cell number divided by the area of one well of a 96-well plate (0.143 cm^2).
(§4) In a dilution series 100 μL/well of test substance dilution prepared in complete RPMI-1640 growth media was added to the cells. The dilution series is selected so that ten concentrations cover a range from 10 μM to 0.33 nM. If necessary, the initial concentration of 10 μM is increased to 100 μM or lowered to 1 μM (as in the case of A375 and H1666 cells, which are generally more sensitive to the compounds) and further dilution is carried out accordingly. The final concentration of DMSO in the assay is set at 0.5%.
(§5) After treatment, media was removed, and cells were lysed in 50 μL of 1× AlphaScreen Ultra Lysis Buffer (Perkin Elmer). The AlphaLISA® SureFire® Ultra™ p-ERK 1/2 (Thr202/Tyr204) (PerkinElmer) reactions were performed with 5 μL of cell lysate according to the manufacturer's specifications in 384-well proxyplates (Perkin Elmer) followed by overnight incubation of the reactions at room temperature in a humidified chamber. After completion of the reactions, the signals were recorded on an EnVision plate reader (Perkin Elmer) using built in AlphaLISA® settings.
(§6) The effect of each compound dilution on the pERK signal was expressed in % inhibition and calculated as follows. An internal 100% inhibition control (1 μM trametinib, cat. No. HY-10999; MedChem Express; CAS No. 871700-17-3) was included in each plate and used as a measure of pERK background. First, the value obtained for trametinib was subtracted from each data point. The average of DMSO (vehicle) controls (set as 0% inhibition) was established and used to calculate % inhibition:
(§7) The ability of each compound to inhibit pERK signal was expressed as an IC50 value obtained by plotting the inhibition values for each data point of a dilution series and fitting the obtained curves using a log(agonist) versus response—variable slope (four parameters) function using GraphPadPrism (V7.0) or Dotmatics Screening Ultra platform.
(§8) When present, paradoxical pERK induction is inferred from the negative % inhibition values observed in the pERK IC50 curves of a compound.

pERK, SW480 cells = assay: Phospho-ERK inhibition, AlphaLISA p-ERK 1/2, SW480; details: Table D-2; for IC50: SW480 (KRAS G12D); for pERK value in parentheses, % inhibition (Ymin): SW480, lowest point of IC50 curve
Description: as §1, §2, §3, §4, §5, §6, §7, §8

pERK, NCIH2087 cells = assay: Phospho-ERK inhibition, AlphaLISA p-ERK 1/2, NCIH2087; details: Table D-2; for IC50: NCIH2087 (BRAF L597V; KRAS Q61K); for pERK value in parentheses, % inhibition (Ymin): NCIH2087, lowest point of IC50 curve
Description: as §1, §2, §3, §4, §5, §6, §7, §8

A375 cells = assay: Proliferation inhibition, CellTiter-Glo, A375; details: Table D-1, A375 (BRAF V600E), 3 days, read-out: Prolif. (proliferation EC50)
Description: as §1
(§9) CellTiter-Glo® viability analysis was conducted on cells plated in 100 μL of complete RPMI-1640 growth medium in 96-well flat-bottomed white opaque plates (Greiner or Croning) at a density indicated in Table E (for each CCL, number of cells plated per well of a 96-well plate to perform the CellTiter-Glo® cell viability assay). The cell density in cells/cm^2 would correspond to cell number divided by the area of one well of a 96-well plate (0.32 cm^2). […]
(§10) After 3 days of incubation, the growth media were removed by aspiration and 60 μL of diluted CellTiter-Glo® reagent (10 μL CellTiter-Glo® reagent+50 μL of PBS) was added to each well. […] Luminescence signals were then acquired on a Synergy Neo2 plate reader (Biotek).
(§11) The effect of each compound dilution on the proliferation of cancer cell lines was expressed in % inhibition and calculated as follows. […]
as §7, with “proliferation” for “pERK signal”, “a EC50” for “an IC50”, “effect” for “inhibition”

NCI-H358 cells = assay: Proliferation inhibition, CellTiter-Glo, NCI-H358; details: Table D-2, NCI-H358 (KRAS-G12C), 3 days, read-out: Prolif. (proliferation EC50)
Description: as §1, §9, §10, §11
as §7, with “proliferation” for “pERK signal”, “a EC50” for “an IC50”, “effect” for “inhibition”

Row | SMILES | IC50 (pERK, NCI-H358 cells; Homo sapiens) | pERK value in parentheses, % inhibition (Ymin) (pERK, NCI-H358 cells) | IC50 (pERK, SW480 cells; Homo sapiens) | pERK value in parentheses, % inhibition (Ymin) (pERK, SW480 cells) | IC50 (pERK, NCIH2087 cells; Homo sapiens, NCI-H2087) | pERK value in parentheses, % inhibition (Ymin) (pERK, NCIH2087 cells) | EC50 (A375 cells; Homo sapiens, A-375, 72 h) | EC50 (NCI-H358 cells; Homo sapiens, 72 h) | IC50 (pERK, NCI-H358 cells) | IC50 (pERK, SW480 cells) | IC50 (pERK, NCIH2087 cells) | EC50 (A375 cells) | EC50 (NCI-H358 cells)
1 | Cc1ccc2c(Nc3cccc(Cl)c3F)nccc2c1NC(=O)c1csc2c(N)ncnc12 [Belvarafenib, reference compound] | 30 to 300 nM | (−122) % | 30 to 300 nM | (−100) % | < 30 nM | 6% | < 300 nM | 300 to 3000 nM |  |  |  |  | 
2 | N#CC1(c2cccc3c2ncn3-c2nc3c(Nc4c(F)ccc(NS(=O)(=O)c5cccc(Cl)c5Cl)c4F)ncnc3s2)CC1 [Example 122] |  | (−3) % |  | (5) % |  | 4% |  |  | 30 to 300 nM | 30 to 300 nM | < 30 nM | < 300 nM | < 300 nM
3 | Cc1c(F)cccc1S(=O)(=O)Nc1ccc(F)c(Nc2ncnc3sc(-n4cc(C(=O)N5C6CCC5CN(C)C6)c5ccccc54)nc23)c1F [Example 44] |  | (1) % |  | (−4) % |  | 4% |  |  | 30 to 300 nM | 30 to 300 nM | < 30 nM | < 300 nM | < 300 nM

— patent US20260137697A1, “THIAZOLO[5,4-D]PYRIMIDINE COMPOUNDS, COMPOSITIONS COMPRISING THEM AND USES THEREOF” (University de Montreal, priority 2022, published 2026)
